Measurements: patent publication US10829473B2, “Modulators of the cystic fibrosis transmembrane conductance regulator protein and methods of use” (AbbVie Overseas S.Á.R.L., priority 2017, dated 2020)
Like-named read-outs stand apart in the source and are kept apart here.

Target: T1, F508delCFTR (Homo sapiens, UniProt P13569, DEL508-508)
T1 construct: expressed in transfected cells; host or cells: CFBE41o- human lung derived epithelial cells (CFBE41o-F508delCFTR-HRP), doxycycline-inducible
Test: Cell Surface Expression-Horse Radish Peroxidase (CSE-HRP) Assay;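 for EC50 (with co-corrector): co-corrector chromenyl benzoic acid corrector at 2 or 3 µM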;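 for Maximum % activity (without co-corrector): % of on-plate positive control chromenyl benzoic acid corrector at 2 or 3 µM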
Assay type: cell-based
Details: for Maximum % activity (with co-corrector) / Emax: maximum at any tested concentration; for Emax: read-out: Maximum % activity (without co-corrector)
In short: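 Corrector compounds were given as 8-point 3-fold series from 20 or 30 μM, with or without a 2 μM co-corrector, for 18-24 h at 33 °C. Surface HRP was read by luminol luminescence as % of positive control; variable-Hill-slope sigmoidal fitting gave EC50 from triplicate plates.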

[1] = test compound alone, without co-corrector, read-out: EC50 (without co-corrector)
[2] = with co-corrector, read-out: EC50 (with co-corrector)

T1 sequence (P13569 with tags, fused parts or gaps DEL508-508): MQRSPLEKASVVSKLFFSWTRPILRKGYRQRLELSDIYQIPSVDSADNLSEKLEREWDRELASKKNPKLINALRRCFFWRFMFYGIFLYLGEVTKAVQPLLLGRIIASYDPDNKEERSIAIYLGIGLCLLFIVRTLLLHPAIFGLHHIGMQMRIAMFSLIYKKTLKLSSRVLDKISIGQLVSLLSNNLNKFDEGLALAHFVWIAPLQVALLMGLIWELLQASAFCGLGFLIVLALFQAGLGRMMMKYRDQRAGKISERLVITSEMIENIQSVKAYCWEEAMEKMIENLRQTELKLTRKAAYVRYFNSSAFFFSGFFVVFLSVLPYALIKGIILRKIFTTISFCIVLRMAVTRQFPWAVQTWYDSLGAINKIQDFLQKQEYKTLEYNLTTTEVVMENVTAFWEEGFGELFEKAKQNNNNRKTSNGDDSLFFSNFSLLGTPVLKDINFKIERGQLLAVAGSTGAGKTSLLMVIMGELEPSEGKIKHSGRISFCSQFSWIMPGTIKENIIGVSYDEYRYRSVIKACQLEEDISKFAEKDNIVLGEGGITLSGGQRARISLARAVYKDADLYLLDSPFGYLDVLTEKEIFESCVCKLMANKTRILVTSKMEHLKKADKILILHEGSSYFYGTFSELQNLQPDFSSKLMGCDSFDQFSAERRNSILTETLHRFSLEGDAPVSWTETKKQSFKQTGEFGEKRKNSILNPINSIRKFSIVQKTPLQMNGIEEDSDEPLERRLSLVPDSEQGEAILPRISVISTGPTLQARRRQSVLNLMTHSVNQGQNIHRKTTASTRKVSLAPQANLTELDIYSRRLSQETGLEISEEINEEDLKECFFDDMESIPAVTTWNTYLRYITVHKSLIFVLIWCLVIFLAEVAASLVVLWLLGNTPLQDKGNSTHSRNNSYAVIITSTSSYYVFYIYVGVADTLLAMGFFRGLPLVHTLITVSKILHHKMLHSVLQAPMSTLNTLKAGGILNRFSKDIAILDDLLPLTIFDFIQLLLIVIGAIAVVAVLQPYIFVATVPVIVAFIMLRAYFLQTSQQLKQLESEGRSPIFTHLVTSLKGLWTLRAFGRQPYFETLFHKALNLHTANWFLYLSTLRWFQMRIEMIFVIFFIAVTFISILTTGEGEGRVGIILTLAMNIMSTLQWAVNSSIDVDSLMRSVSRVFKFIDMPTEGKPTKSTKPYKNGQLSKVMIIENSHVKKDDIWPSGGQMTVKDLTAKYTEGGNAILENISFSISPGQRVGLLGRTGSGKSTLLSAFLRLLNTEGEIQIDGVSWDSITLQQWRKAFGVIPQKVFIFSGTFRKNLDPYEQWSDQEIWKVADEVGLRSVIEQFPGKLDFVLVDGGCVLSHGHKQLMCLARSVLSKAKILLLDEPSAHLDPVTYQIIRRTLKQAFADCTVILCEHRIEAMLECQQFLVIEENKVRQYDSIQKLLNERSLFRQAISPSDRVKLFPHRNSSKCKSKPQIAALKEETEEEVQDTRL

Row | Structure (SMILES) | EC50 [1] [µM] | Maximum % activity (with co-corrector) (with co-corrector) | EC50 [2] [µM] | Emax (without co-corrector) [%]
1 | COc1ccc(C(C)C)cc1C1(C(=O)NS(=O)(=O)c2cccc3nc(C)ccc23)CC1 [Example I-71, 1-[2-methoxy-5-(propan-2-yl)phenyl]-N-(2-methylquinoline-5-sulfonyl)cyclopropane-1-carboxamide] | < 3 | +++ (≥350) | < 3 | > 150
2 | Cc1ccc2c(S(=O)(=O)NC(=O)C3(c4cc(C(F)(F)F)cnc4N(C)C)CC3)cccc2n1 [Example I-72, 1-[2-(dimethylamino)-5-(trifluoromethyl)pyridin-3-yl]-N-(2-methylquinoline-5-sulfonyl)cyclopropane-1-carboxamide] | 3 to 10 | +++ (≥350) | < 3 | > 150
3 | COCC1(c2ccc(OC)c(C3(C(=O)NS(=O)(=O)c4cccc5ncccc45)CC3)c2)CC1 [Example I-73, 1-{2-methoxy-5-[1-(methoxymethyl)cyclopropyl]phenyl}-N-(quinoline-5-sulfonyl)cyclopropane-1-carboxamide] | < 3 | +++ (≥350) | < 3 | > 150
4 | COCC1(c2ccc(OC)c(C3(C(=O)NS(=O)(=O)c4cccc5nc(C)ccc45)CC3)c2)CC1 [Example I-74, 1-{2-methoxy-5-[1-(methoxymethyl)cyclopropyl]phenyl}-N-(2-methylquinoline-5-sulfonyl)cyclopropane-1-carboxamide] | < 3 | +++ (≥350) | < 3 | > 150
5 | COc1nc2ccccc2cc1C1(C(=O)NS(=O)(=O)c2cccc3nc(C)ccc23)CC1 [Example I-75, 1-(2-methoxyquinolin-3-yl)-N-(2-methylquinoline-5-sulfonyl)cyclopropane-1-carboxamide] | 3 to 10 | +++ (≥350) | < 3 | > 150
6 | COc1nc2ccccc2cc1C1(C(=O)NS(=O)(=O)c2cccc3ncccc23)CC1 [Example I-76, 1-(2-methoxyquinolin-3-yl)-N-(quinoline-5-sulfonyl)cyclopropane-1-carboxamide] | 3 to 10 | +++ (≥350) | < 3 | > 150
7 | Cc1ccc(OC(C)C)c(C2(C(=O)NS(=O)(=O)c3cccc4ncccc34)CC2)c1 [Example I-77, 1-{5-methyl-2-[(propan-2-yl)oxy]phenyl}-N-(quinoline-5-sulfonyl)cyclopropane-1-carboxamide] | < 3 | +++ (≥350) | < 3 | > 150
8 | Cc1ccc(OC(C)C)c(C2(C(=O)NS(=O)(=O)c3cccc4nc(C)ccc34)CC2)c1 [Example I-78, 1-{5-methyl-2-[(propan-2-yl)oxy]phenyl}-N-(2-methylquinoline-5-sulfonyl)cyclopropane-1-carboxamide] | < 3 | +++ (≥350) | < 3 | > 150
9 | COc1ccc(C)cc1C1(C(=O)NS(=O)(=O)c2cccc3nc(N)ccc23)CC1 [Example I-79, N-(2-aminoquinoline-5-sulfonyl)-1-(2-methoxy-5-methylphenyl)cyclopropane-1-carboxamide] | < 3 | +++ (≥350) | < 3 | > 150
10 | COc1cc(C2CCC2)cc(OC)c1C1(C(=O)NS(=O)(=O)c2cccc3ncccc23)CC1 [Example I-80, 1-(4-cyclobutyl-2,6-dimethoxyphenyl)-N-(quinoline-5-sulfonyl)cyclopropane-1-carboxamide] | 3 to 10 | +++ (≥350) | < 3 | > 150
11 | Cc1ccc(C)c(C2(C(=O)NS(=O)(=O)c3cccc4nc(N)ccc34)CC2)c1 [Example I-81, N-(2-aminoquinoline-5-sulfonyl)-1-(2,5-dimethylphenyl)cyclopropane-1-carboxamide] | < 3 | +++ (≥350) | < 3 | > 150
12 | CCOc1ccc(C)cc1C1(C(=O)NS(=O)(=O)c2cccc3ncccc23)CC1 [Example I-82, 1-(2-ethoxy-5-methylphenyl)-N-(quinoline-5-sulfonyl)cyclopropane-1-carboxamide] | < 3 | +++ (≥350) | < 3 | > 150
13 | CCOc1ccc(C)cc1C1(C(=O)NS(=O)(=O)c2cccc3nc(C)ccc23)CC1 [Example I-83, 1-(2-ethoxy-5-methylphenyl)-N-(2-methylquinoline-5-sulfonyl)cyclopropane-1-carboxamide] | < 3 | +++ (≥350) | < 3 | > 150
14 | CCc1ccc(OC)c(C2(C(=O)NS(=O)(=O)c3cccc4nc(C)ccc34)CC2)c1 [Example I-84, 1-(5-ethyl-2-methoxyphenyl)-N-(2-methylquinoline-5-sulfonyl)cyclopropane-1-carboxamide] | < 3 | +++ (≥350) | < 3 | > 150
15 | CNC1(c2ccc(OC)c(C3(C(=O)NS(=O)(=O)c4cccc5ncccc45)CC3)c2)CC1 [Example I-85, 1-{2-methoxy-5-[1-(methylamino)cyclopropyl]phenyl}-N-(quinoline-5-sulfonyl)cyclopropane-1-carboxamide] | > 10 | ++ (≥150 and <350) | 3 to 10 | < 50
16 | COc1cc(C2CCC2)cc(OC)c1C1(C(=O)NS(=O)(=O)c2cccc3[nH]ccc23)CC1 [Example I-86, 1-(4-cyclobutyl-2,6-dimethoxyphenyl)-N-(1H-indole-4-sulfonyl)cyclopropane-1-carboxamide] | < 3 | +++ (≥350) | < 3 | > 150
17 | Cc1ccc(OC(C)C)c(C2(C(=O)NS(=O)(=O)c3cccc4nc(N)ccc34)CC2)c1 [Example I-87, N-(2-aminoquinoline-5-sulfonyl)-1-{5-methyl-2-[(propan-2-yl)oxy]phenyl}cyclopropane-1-carboxamide] | < 3 | +++ (≥350) | < 3 | > 150
18 | COc1ccc(C2(OC)CCC2)cc1C1(C(=O)NS(=O)(=O)c2cccc3ncccc23)CC1 [Example I-88, 1-[2-methoxy-5-(1-methoxycyclobutyl)phenyl]-N-(quinoline-5-sulfonyl)cyclopropane-1-carboxamide] | 3 to 10 | +++ (≥350) | < 3 | > 150
19 | CCOc1ccc(C)cc1C1(C(=O)NS(=O)(=O)c2cccc3nc(N)ccc23)CC1 [Example I-89, N-(2-aminoquinoline-5-sulfonyl)-1-(2-ethoxy-5-methylphenyl)cyclopropane-1-carboxamide] | < 3 | +++ (≥350) | < 3 | > 150
20 | COc1ccc(C2COC2)cc1C1(C(=O)NS(=O)(=O)c2cccc3ncccc23)CC1 [Example I-90, 1-[2-methoxy-5-(oxetan-3-yl)phenyl]-N-(quinoline-5-sulfonyl)cyclopropane-1-carboxamide] | 3 to 10 | +++ (≥350) | 3 to 10 | 50 to 150
21 | CCOc1ccc(C)cc1C1(C(=O)NS(=O)(=O)c2cccc3[nH]c(C)cc23)CC1 [Example I-91, 1-(2-ethoxy-5-methylphenyl)-N-(2-methyl-1H-indole-4-sulfonyl)cyclopropane-1-carboxamide] | < 3 | +++ (≥350) | < 3 | > 150
22 | COc1cc(C2(C(=O)NS(=O)(=O)c3cccc4nc(N)ccc34)CC2)c(OCC(C)C)cn1 [Example I-92, N-(2-aminoquinoline-5-sulfonyl)-1-[2-methoxy-5-(2-methylpropoxy)pyridin-4-yl]cyclopropane-1-carboxamide] | < 3 | +++ (≥350) | < 3 | > 150
23 | Cc1ccc(OC2COC2)c(C2(C(=O)NS(=O)(=O)c3cccc4ncccc34)CC2)c1 [Example I-93, 1-{5-methyl-2-[(oxetan-3-yl)oxy]phenyl}-N-(quinoline-5-sulfonyl)cyclopropane-1-carboxamide] | 3 to 10 | +++ (≥350) | < 3 | > 150
24 | CCc1cnc(OCC(C)C)c(C2(C(=O)NS(=O)(=O)c3cccc4[nH]ncc34)CC2)c1 [Example I-94, 1-[5-ethyl-2-(2-methylpropoxy)pyridin-3-yl]-N-(1H-indazole-4-sulfonyl)cyclopropane-1-carboxamide] | < 3 | +++ (≥350) | < 3 | > 150
25 | COC[C@@H](C)Oc1ccc(C)cc1C1(C(=O)NS(=O)(=O)c2cccc3ncccc23)CC1 [Example I-95, 1-(2-{[(2R)-1-methoxypropan-2-yl]oxy}-5-methylphenyl)-N-(quinoline-5-sulfonyl)cyclopropane-1-carboxamide] | < 3 | +++ (≥350) | < 3 | > 150
26 | Cc1cnc(OCC(C)C)c(C2(C(=O)NS(=O)(=O)c3cccc4nc(N)ccc34)CC2)c1 [Example I-96, N-(2-aminoquinoline-5-sulfonyl)-1-[5-methyl-2-(2-methylpropoxy)pyridin-3-yl]cyclopropane-1-carboxamide] | < 3 | +++ (≥350) | < 3 | > 150
